According to patent US9067898B1, “Isothiazole derivatives as GPR120 agonists for the treatment of type II diabetes” (Janssen Pharmaceutica NV, priority 2014, dated 2015):

How the values were obtained:
[1] = molecular target: T1, long form of human GPR120 (Homo sapiens, UniProt Q5NUL3); experiment: Human GPR120 DiscoveRx PathHunter Beta-Arrestin assay, Procedure β-arrestin A; assay type: cell-based; settings: PathHunter CHO-K1 GPR120 β-Arrestin cell line, 3000 cells per well, read-out: hGPR120 β-arrestin A EC50
T1 construct: host or cells: PathHunter CHO-K1 GPR120 β-Arrestin Cell Line
Text: The binding of an agonist (medium/long chain fatty acids or small molecule agonists) to the G-protein-coupled receptor GPR120 activates phospholipase C, leading to release of intracellular Ca^+2 through the generation of inositol 1,4,5-trisphosphate (InsP3 or IP3). GPR120 activation can also trigger intracellular signaling via recruitment of Beta-Arrestin. In the present method, agonist-induced activation of the human GPR120 receptor is monitored through the use of PathHunter CHO-K1 GPR120 Beta-Arrestin Cell Line engineered by DiscoveRx, as detailed below. The cell lines are designed to co-express both the ProLink/Enzyme Donor (PK)-tagged GPCR and the Enzyme […] (EA)-tagged Beta-Arrestin fusion proteins. Upon GPR120 receptor stimulation/activation, the EA-tagged Beta-Arrestin portion is translocated to the tagged receptor, where the two enzyme fragments are brought within close proximity. Under these conditions, these fragments can interact and form an active Beta-gal enzyme complex through Enzyme Fragment Complementation (EFC). This active Beta-gal complex can enzymatically hydrolyse the substrate to produce a detectable light signal; therefore, activation as a function of agonist concentration can be expressed as an EC50 value to determine relative compound activities. This in vitro assay therefore serves to assess compound agonist activity of the GPR120. Procedure β-Arrestin A: In Procedure β-arrestin A, the cell used were PathHunter CHO-K1 GPR120 β-Arrestin Cell Line, expressing the long form of human GPR120 (Genbank accession number NM 181745), with 3000 cells per well. Procedure β-Arrestin B: In Procedure 3-arrestin B the cells used were PathHunter CHO-K1 GPR120S β-Arrestin Cell Line, expressing the short form of the GPR120 receptor (Accession #NM_181745), with 5000 cells/well. Assay Procedure:
The selected CHO-K1 GPR120 β-Arrestin cells were cultured in Ham's F12 media supplemented with 10% fetal bovine serum (FBS), 1% Glutamine, lx p/s, 800 μg/mL G418 and 300 μg/mL Hygromycin B (for selection). Cell stocks were maintained and grown in a sub-confluent state using standard cell culture procedures. The day before the experiment, the cells were harvested with non-enzymatic cell dissociation buffer and re-suspended in complete growth media at the desired concentration. A Corning 384-plate was then seeded with the proper number of cells in a volume of 25 μL, per well. The seeded plates were incubated overnight at 37° C.
On the day of the experiment, the Assay Buffer containing (a) HBSS with Ca^++ and Mg^++, (b) 20 mM HEPES, and (c) 0.1% BSA stabilizer (pH 7.4) was prepared. The growth medium was gently removed from the cell plates and 20 μL of Assay Buffer added to each well. The plate was then incubated at 37° C. for 60 min. Test compounds were serially diluted in Assay Buffer to desired concentrations (more particularly to one or more of the following μM concentrations: 25, 12.5, 6.25, 3.125, 1.5625, 0.78125, 0.390625, 0.1953125, 0.09765625, 0.048828125, 0.024414063, 0.012207031). Five μL of compound dilution was then added to each well and the plate incubated at 37° C. for 90 min. The detection reagents were prepared according to the manufacture's instruction. Twelve μL of the detection reagents were added to each well and the plate incubated at room temperature for 60 min.
The plates were read on an EnVision instrument, using Protocol name: Luminescence, Plate type: 384 Costar, Measurement height: 3 mm, Measurement time: 1 s, Aperture: 384 Plate aperture. The % activity relative to the positive control was calculated using the following equation:
The % Activity values were plotted versus the concentration of test compound and fitted to a sigmoidal dose-response curve with a Hill slope=1 (fixed value) using nonlinear regression with GraphPad Prism 5.0 to calculate the EC50 values. […]

Human GPR120 short form = molecular target: T2, Human GPR120 short form (Homo sapiens, UniProt Q5NUL3); experiment: Human GPR120 calcium flux assay (FLIPR), Procedure Calcium A; assay type: cell-based; settings: HEK-293 cells expressing human GPR120 short form, 2500 cells/well; read-out: GPR120 Ca2+ Assay A EC50
T2 construct: expressed in transfected cells
T2 sequence (Q5NUL3 1-361): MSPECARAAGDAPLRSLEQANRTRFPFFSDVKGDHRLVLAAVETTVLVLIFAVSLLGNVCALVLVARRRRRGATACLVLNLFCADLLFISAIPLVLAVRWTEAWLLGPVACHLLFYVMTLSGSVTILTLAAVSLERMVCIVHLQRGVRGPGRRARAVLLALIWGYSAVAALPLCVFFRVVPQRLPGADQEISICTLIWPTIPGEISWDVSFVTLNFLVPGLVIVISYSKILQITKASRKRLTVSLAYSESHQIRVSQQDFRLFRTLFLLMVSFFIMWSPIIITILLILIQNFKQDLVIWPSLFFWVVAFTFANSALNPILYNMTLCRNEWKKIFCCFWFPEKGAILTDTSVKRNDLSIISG
In short: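 HEK293 cells stably expressing the short isoform (NM_001195755.1), 2500/well, starved 1 h, then loaded with Fluo-4 NW plus probenecid (30 min 37 °C, 15 min RT). Compound solutions 0.012–100 μM, 0.2% DMSO final; FLIPR read 300 s after addition. EC50 from Fmax−Fmin fitted to variable-slope sigmoid (Hill <2).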

T1 sequence (Q5NUL3 1-377 isoform Q5NUL3-1): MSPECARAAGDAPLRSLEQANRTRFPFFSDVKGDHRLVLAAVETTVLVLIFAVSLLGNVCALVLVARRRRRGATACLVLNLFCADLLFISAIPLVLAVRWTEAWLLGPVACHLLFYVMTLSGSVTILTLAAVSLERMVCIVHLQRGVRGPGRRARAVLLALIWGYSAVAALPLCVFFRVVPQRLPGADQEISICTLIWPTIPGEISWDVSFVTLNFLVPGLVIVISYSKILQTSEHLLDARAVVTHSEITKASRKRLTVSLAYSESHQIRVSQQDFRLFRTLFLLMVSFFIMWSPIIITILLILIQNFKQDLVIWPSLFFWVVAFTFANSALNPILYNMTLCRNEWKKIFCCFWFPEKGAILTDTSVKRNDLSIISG
T1 sequence (P32121 whole entry partner): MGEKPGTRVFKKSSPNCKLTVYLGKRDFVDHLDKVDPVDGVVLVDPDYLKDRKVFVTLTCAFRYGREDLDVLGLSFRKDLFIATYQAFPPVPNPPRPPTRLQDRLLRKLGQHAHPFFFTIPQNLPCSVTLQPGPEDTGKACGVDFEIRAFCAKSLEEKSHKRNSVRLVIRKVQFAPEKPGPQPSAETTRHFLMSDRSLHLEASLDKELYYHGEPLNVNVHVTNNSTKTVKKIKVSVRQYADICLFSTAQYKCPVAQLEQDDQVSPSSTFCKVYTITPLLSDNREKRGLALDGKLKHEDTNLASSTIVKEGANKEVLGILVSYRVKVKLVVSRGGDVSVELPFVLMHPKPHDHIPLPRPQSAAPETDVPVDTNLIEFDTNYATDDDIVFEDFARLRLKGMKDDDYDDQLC

Row | SMILES | EC50 [1] [nM] | EC50 (Human GPR120 short form) [nM]
1 | Cc1c(CCC(=O)O)ccc(OCc2c(Cl)nsc2-c2ccccc2Cl)c1C [Cpd 104, 3-(4-[[3-chloro-5-(2-chlorophenyl)-1,2-thiazol-4-yl]methoxy]-2,3-dimethylphenyl)propanoic acid] | 399 | 83
2 | OCCCc1cc(F)c(OCc2c(-c3ccc(Cl)cc3)csc2C(F)(F)F)c(F)c1 [Cpd 46, 3-(4-[[4-(4-chlorophenyl)-2-(trifluoromethyl)thiophen-3-yl]methoxy]-3,5-difluorophenyl)propan-1-ol] | 125 | 165
3 | COc1ccc(-c2nsc(C(F)(F)F)c2COc2c(F)cc(CCCO)cc2F)cn1 [Cpd 81, 3-(3,5-difluoro-4-[[3-(6-methoxypyridin-3-yl)-5-(trifluoromethyl)-1,2-thiazol-4-yl]methoxy]phenyl)propan-1-ol] | 94 | 51
4 | Cc1c(CCC(=O)O)ccc(OCc2c(Cl)nsc2-c2cccc(Cl)c2)c1C [Cpd 156, 3-(4-[[3-chloro-5-(3-chlorophenyl)-1,2-thiazol-4-yl]methoxy]-2,3-dimethylphenyl)propanoic acid] | 368 | 185
5 | COc1ccc(-c2csc(C(F)(F)F)c2COc2c(F)cc(CCC(=O)O)cc2F)cn1 [Cpd 42, 3-(3,5-difluoro-4-((4-(6-methoxypyridin-3-yl)-2-(trifluoromethyl)thiophen-3-yl)methoxy)phenyl)propanoic acid] | 445 | 143
6 | CCc1ccc(-c2snc(Cl)c2COc2c(F)cc(CCCO)c(F)c2F)cc1 [Cpd 140, 3-(4-((3-chloro-5-(4-ethylphenyl)isothiazol-4-yl)methoxy)-2,3,5-trifluorophenyl)propan-1-ol] | 67 | 139
7 | Cc1c(CCC(=O)O)ccc(OCc2c(-c3c(F)cc(Cl)cc3F)nsc2C(F)(F)F)c1C [Cpd 133, 3-(4-((3-(4-chloro-2,6-difluorophenyl)-5-(trifluoromethyl)isothiazol-4-yl)methoxy)-2,3-dimethylphenyl)propanoic acid] | 539 | 131
8 | COc1ccc(-c2snc(Cl)c2COc2c(F)cc(CCC(=O)O)cc2F)cc1 [Cpd 97, 3-(4-[[3-chloro-5-(4-methoxyphenyl)-1,2-thiazol-4-yl]methoxy]-3,5-difluorophenyl)propanoic acid] | 338 | 73
9 | COc1ccc(-c2csc(C(F)(F)F)c2COc2c(F)cc(CCC(=O)O)cc2F)cc1 [Cpd 34, 3-(3,5-difluoro-4-((4-(4-methoxyphenyl)-2-(trifluoromethyl)thiophen-3-yl)methoxy)phenyl)propanoic acid] | 208 | 65
10 | Cc1c(CCC(=O)O)cc(F)c(OCc2c(-c3ccc(Cl)cc3)nsc2C(F)(F)F)c1F [Cpd 113, 3-(4-((3-(4-chlorophenyl)-5-(trifluoromethyl)isothiazol-4-yl)methoxy)-3,5-difluoro-2-methylphenyl)propanoic acid] | 71 | 99
11 | CCc1ccc(-c2nsc(C(F)(F)F)c2COc2c(F)cc(CC(C)CO)cc2F)cc1 (centres unmarked) [Cpd 216, 3-(4-[[3-(4-ethylphenyl)-5-(trifluoromethyl)-1,2-thiazol-4-yl]methoxy]-3,5-difluorophenyl)-2-methylpropan-1-ol] | 466 | 674
12 | COc1ccc(-c2nsc(C(F)(F)F)c2COc2c(F)cc(CCCO)cc2F)cc1 [Cpd 234, 3-(3,5-difluoro-4-[[3-(4-methoxyphenyl)-5-(trifluoromethyl)-1,2-thiazol-4-yl]methoxy]phenyl)propan-1-ol] | 145 | 
13 | OCCCc1ccc(OCc2sc(Cl)cc2-c2ccc(Cl)cc2)c(F)c1F [Cpd 29, 3-(4-[[5-chloro-3-(4-chlorophenyl)thiophen-2-yl]methoxy]-2,3-difluorophenyl)propan-1-ol] | 243 | 

Continued by falling EC50 [1], values first:

Row | EC50 [1] [nM] | EC50 (Human GPR120 short form) [nM] | SMILES
14 | 486 | 225 | O=C(O)CCc1cc(F)c(OCc2csnc2-c2ccc(Br)cc2)c(F)c1 [Cpd 169, 3-(4-((3-(4-bromophenyl)isothiazol-4-yl)methoxy)-3,5-difluorophenyl)propanoic acid]
15 | 379 | 314 | Cc1c(CCC(=O)O)ccc(OCc2c(-c3ccc(C4CC4)cc3)nsc2C(F)(F)F)c1C [Cpd 190, 3-(4-((3-(4-cyclopropylphenyl)-5-(trifluoromethyl)isothiazol-4-yl)methoxy)-2,3-dimethylphenyl)propanoic acid]
16 | 213 | 172 | O=C(O)CCc1cc(F)c(OCc2c(-c3ccc4c(c3)CCO4)csc2C(F)(F)F)c(F)c1 [Cpd 51, 3-(4-((4-(2,3-dihydrobenzofuran-5-yl)-2-(trifluoromethyl)thiophen-3-yl)methoxy)-3,5-difluorophenyl)propanoic acid]
17 | 186 |  | O=C(O)CCc1ccc(OCc2sc(Cl)cc2-c2ccc(Cl)cc2)c(F)c1F [Cpd 28, 3-(4-[[5-chloro-3-(4-chlorophenyl)thiophen-2-yl]methoxy]-2,3-difluorophenyl)propanoic acid]
18 | 128 | 106 | Cc1snc(-c2ccc(Cl)cc2)c1COc1ccc(CCC(=O)O)c(F)c1F [Cpd 119, 3-(4-((3-(4-chlorophenyl)-5-methylisothiazol-4-yl)methoxy)-2,3-difluorophenyl)propanoic acid]
19 | 122 | 130 | OCCCc1ccc(OCc2c(-c3ccc(Cl)cc3)nsc2C(F)(F)F)c(F)c1F [Cpd 132, 3-(4-((3-(4-chlorophenyl)-5-(trifluoromethyl)isothiazol-4-yl)methoxy)-2,3-difluorophenyl)propan-1-ol]
20 | 119 | 56 | Cc1ccc(-c2snc(C)c2COc2c(F)cc(CCC(=O)O)cc2F)c(F)c1 [Cpd 84, 3-(3,5-difluoro-4-[[5-(2-fluoro-4-methylphenyl)-3-methyl-1,2-thiazol-4-yl]methoxy]phenyl) propanoic acid]
21 | 91 | 75 | COc1ccc(-c2nsc(C(F)(F)F)c2COc2c(F)cc(CCC(=O)O)cc2F)cc1 [Cpd 99, 3-(3,5-difluoro-4-[[3-(4-methoxyphenyl)-5-(trifluoromethyl)-1,2-thiazol-4-yl]methoxy]phenyl)propanoic acid]
22 | 90 | 521 | CCc1ccc(-c2nsc(C(F)(F)F)c2COc2c(F)cc(CCCO)c(F)c2F)cc1 [Cpd 238, 3-(4-((3-(4-ethylphenyl)-5-(trifluoromethyl)isothiazol-4-yl)methoxy)-2,3,5-trifluorophenyl)propan-1-ol]
